Test systems include CCRF-CEM leukemia; UACC-62 melanoma; UACC-257 melanoma; CAKI-1 renal; SF-268 CNS; HCT-15 colon; SK-MEL-2 melanoma; OVCAR-8 ovarian; K-562 leukemia; LOX IMVI melanoma.
Common to all, as to test: growth of human tumour cells (NCI), 48 h

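Method: 48-hour compound exposure of cells in 96-well plates, five concentrations, linear interpolation of endpoints. GI50 marks 50% less growth. Definition used: TGI = concentration required for complete inhibition of growth.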

Turning to `COc1ccc(Cc2ccc3[nH]c(=O)cc(C)c3c2)cc1S(=O)(=O)O`, the TGI in the test with CCRF-CEM leukemia, in the test with UACC-62 melanoma, in the test on UACC-257 melanoma, in the test with CAKI-1 renal, in the test with SF-268 CNS and in the test on HCT-15 colon was over 100 µM throughout. Moreover, the TGI with SK-MEL-2 melanoma, in the test on OVCAR-8 ovarian, in the test on K-562 leukemia and with LOX IMVI melanoma was over 100 µM each time.
For `O=C(O)C(Cc1ccccc1)N=Cc1nc(-c2ccccc2)oc1O` (stereo not given), the TGI with CCRF-CEM leukemia, in the test with UACC-62 melanoma, in the test on UACC-257 melanoma, with CAKI-1 renal, with SF-268 CNS and in the test with HCT-15 colon was over 100 µM in each case. Also, the TGI in the test with SK-MEL-2 melanoma, in the test on OVCAR-8 ovarian, in the test with K-562 leukemia and in the test on LOX IMVI melanoma was over 100 µM each time.
As for `CC1(C)CC[C@]2(C(=O)NCCNCCN)CC[C@]3(C)C(=CC[C@@H]4[C@@]5(C)CCC(=O)C(C)(C)[C@@H]5CC[C@]43C)[C@@H]2C1`, the GI50 in the test with CCRF-CEM leukemia was 2.51 µM; in the test on UACC-62 melanoma, 1.69 µM; in the test on UACC-257 melanoma it was 1.86 µM; with CAKI-1 renal it was 1.82 µM; with SF-268 CNS, 1.89 µM; with HCT-15 colon it was 1.79 µM. Further, the GI50 with SK-MEL-2 melanoma was 1.94 µM; in the test with OVCAR-8 ovarian, 2.15 µM; with K-562 leukemia it was 2.74 µM; with LOX IMVI melanoma, 1.81 µM. In addition, the TGI in the test on CCRF-CEM leukemia worked out at 8.64 µM; with UACC-62 melanoma, 3.14 µM; in the test on UACC-257 melanoma, 3.85 µM; in the test on CAKI-1 renal, 4.47 µM; in the test on SF-268 CNS, 4.06 µM; with HCT-15 colon it was 3.29 µM. For the same compound, the TGI in the test with SK-MEL-2 melanoma was 4.05 µM; with OVCAR-8 ovarian, 4.9 µM; in the test with K-562 leukemia, over 100 µM; in the test with LOX IMVI melanoma it was 3.26 µM.
With `Cn1cc(-c2ncnc3ccc(-c4cnc(Cl)c(NS(C)(=O)=O)c4)cc23)c2ccccc21`, the GI50 in the test with CCRF-CEM leukemia is 0.687 µM; with UACC-62 melanoma, 0.181 µM; with UACC-257 melanoma it was 0.959 µM; in the test with CAKI-1 renal it was 0.415 µM; in the test with SF-268 CNS, 1.09 µM; in the test with HCT-15 colon, 0.447 µM. In addition, the GI50 is 1.16 µM in the test on SK-MEL-2 melanoma, 1.72 µM in the test with OVCAR-8 ovarian, 2.7 µM in the test on K-562 leukemia and 0.48 µM with LOX IMVI melanoma. Further, the TGI in the test on CCRF-CEM leukemia was over 62.7 µM; with UACC-62 melanoma, 1.95 µM; in the test on UACC-257 melanoma, 7.05 µM; in the test with CAKI-1 renal it was 27 µM; with SF-268 CNS it was over 100 µM; in the test with HCT-15 colon it was over 71.1 µM. In addition, the TGI is 4.85 µM in the test on SK-MEL-2 melanoma, over 100 µM with OVCAR-8 ovarian, over 100 µM in the test with K-562 leukemia and 11.8 µM in the test on LOX IMVI melanoma.
Regarding `C=CCC1(CN(C)C)CC/C(=C\c2cc(OC)c(OC)c(OC)c2)C1=O` (stereo not given), the TGI in the test with CCRF-CEM leukemia was 51.9 µM; in the test with UACC-62 melanoma, 43.1 µM; in the test with UACC-257 melanoma it was 58.3 µM; in the test with CAKI-1 renal it was over 100 µM; in the test with SF-268 CNS it was 51.6 µM; in the test on HCT-15 colon, 35.2 µM. Besides, the TGI with SK-MEL-2 melanoma is over 100 µM; in the test on OVCAR-8 ovarian, 54.6 µM; in the test on K-562 leukemia, 54.1 µM; with LOX IMVI melanoma it was 43 µM.
Take `OCC#Cc1ccccc1C#Cc1ccc(C#Cc2ccccc2C#CCO)cc1`: the GI50 in the test on CCRF-CEM leukemia is 38.1 µM; in the test with UACC-62 melanoma, 58.6 µM; in the test with UACC-257 melanoma it was 89.5 µM; in the test on CAKI-1 renal it was 68.3 µM; in the test with SF-268 CNS it was 35.1 µM; with HCT-15 colon, over 100 µM. For the same compound, the GI50 was 36.2 µM with SK-MEL-2 melanoma, 79.1 µM with OVCAR-8 ovarian, 34 µM in the test on K-562 leukemia and 48.1 µM in the test on LOX IMVI melanoma. The TGI in the test on CCRF-CEM leukemia, in the test on UACC-62 melanoma, in the test with UACC-257 melanoma, with CAKI-1 renal, with SF-268 CNS and in the test with HCT-15 colon was over 100 µM throughout. Moreover, the TGI in the test with SK-MEL-2 melanoma was 79.9 µM; with OVCAR-8 ovarian, over 100 µM; with K-562 leukemia it was over 100 µM; in the test with LOX IMVI melanoma it was over 100 µM.
Consider `CCCC(=O)Oc1ccc(/C=N/NC(N)=S)nc1`, for which the TGI with CCRF-CEM leukemia, in the test with UACC-62 melanoma, with UACC-257 melanoma, in the test on CAKI-1 renal, in the test with SF-268 CNS and with HCT-15 colon was over 100 µM throughout. The TGI in the test on SK-MEL-2 melanoma, in the test on OVCAR-8 ovarian, in the test with K-562 leukemia and with LOX IMVI melanoma was over 100 µM throughout.
For `CCC(CO)Nc1nc(NCc2ccccc2)c2n[nH]c(C(C)C)c2n1` (stereo not given), the GI50 in the test with CCRF-CEM leukemia is 6.55 µM; in the test on UACC-62 melanoma, 11.3 µM; in the test with UACC-257 melanoma it was 16.6 µM; in the test on CAKI-1 renal it was 3 µM; in the test on SF-268 CNS, 10.7 µM; in the test on HCT-15 colon, 14.7 µM. For the same compound, the GI50 in the test with SK-MEL-2 melanoma is 5.15 µM; with OVCAR-8 ovarian, 8.98 µM; with K-562 leukemia, 5.96 µM; in the test on LOX IMVI melanoma, 7.55 µM. In addition, the TGI in the test on CCRF-CEM leukemia worked out at 52.6 µM; in the test on UACC-62 melanoma it was 24.7 µM; with UACC-257 melanoma, 35.6 µM; with CAKI-1 renal, 16.2 µM; in the test with SF-268 CNS it was 26.4 µM; in the test on HCT-15 colon, 49.7 µM. Further, the TGI in the test on SK-MEL-2 melanoma was 21.4 µM; in the test on OVCAR-8 ovarian it was 31.1 µM; in the test on K-562 leukemia, 34.4 µM; in the test on LOX IMVI melanoma, 20.9 µM.
`C[N+]1(CCNP(=S)(NCC[N+]2(C)Cc3c(ccc4c3OCO4)C3C2c2cc4c(cc2C[C@@H]3O)OCO4)NCC[N+]2(C)Cc3c(ccc4c3OCO4)C3C2c2cc4c(cc2C[C@@H]3O)OCO4)Cc2c(ccc3c2OCO3)C2C1c1cc3c(cc1C[C@H]2O)OCO3` (stereo not given in full): the TGI in the test on CCRF-CEM leukemia was over 383 µM; in the test with CAKI-1 renal, 69.5 µM; with HCT-15 colon, under 0.00191 µM; in the test on SK-MEL-2 melanoma it was under 0.00191 µM; with OVCAR-8 ovarian, under 0.00191 µM. Moreover, the GI50 in the test with UACC-62 melanoma was 1.23 µM; in the test with UACC-257 melanoma, 1.44 µM; in the test on SF-268 CNS it was 6.67 µM; in the test on K-562 leukemia it was 2.32 µM; with LOX IMVI melanoma, 1.92 µM.
